Data: US9127003B2, “2-(azaindol-2-yl)benzimidazoles as PAD4 inhibitors” (Glaxo Group Limited, priority 2012, dated 2015)
Where “and” joins values, the source holds several entries; their conditions need not be identical. Equal entries are not always repeated. Structures can show the parent of a compound that is named as a salt.

Experiments:
[1] = target: T1, Recombinant human PAD4 (residues 1-663) (Homo sapiens, UniProt Q9UM07); assay: PAD4 enzyme assay (NH3 release, BAEE substrate, fluorescence); format: biochemical; details: PAD4 enzyme assay above (Conditions A or B) or similar assays; read-out: mean pIC50 (converted)
T1 construct: Recombinant human PAD4 (residues 1-663); GST (N, cleaved yes); made in house; host or cells: E. coli
T1 sequence (Q9UM07 whole entry, the tested form may be a part): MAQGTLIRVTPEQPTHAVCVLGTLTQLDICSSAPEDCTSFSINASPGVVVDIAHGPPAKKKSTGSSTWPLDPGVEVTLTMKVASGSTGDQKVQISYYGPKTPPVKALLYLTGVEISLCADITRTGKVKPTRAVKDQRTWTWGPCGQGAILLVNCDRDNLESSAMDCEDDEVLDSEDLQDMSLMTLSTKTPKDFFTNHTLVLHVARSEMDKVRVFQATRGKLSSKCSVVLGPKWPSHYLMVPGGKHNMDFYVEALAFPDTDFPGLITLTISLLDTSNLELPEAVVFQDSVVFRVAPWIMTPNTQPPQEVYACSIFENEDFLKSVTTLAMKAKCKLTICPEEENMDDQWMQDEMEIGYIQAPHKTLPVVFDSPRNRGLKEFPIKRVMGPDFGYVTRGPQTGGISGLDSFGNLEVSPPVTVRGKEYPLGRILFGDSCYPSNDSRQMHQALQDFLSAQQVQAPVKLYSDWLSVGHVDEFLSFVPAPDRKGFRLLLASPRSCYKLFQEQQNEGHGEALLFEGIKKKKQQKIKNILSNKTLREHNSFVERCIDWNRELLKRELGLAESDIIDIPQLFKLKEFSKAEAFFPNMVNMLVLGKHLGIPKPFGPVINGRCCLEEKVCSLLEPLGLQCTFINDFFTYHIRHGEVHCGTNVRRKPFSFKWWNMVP
Procedure: Recombinant human PAD4 (residues 1-663) was expressed in E. coli as an N-terminal GST-tagged fusion protein. During purification of the protein, the GST tag was removed by cleavage with PreScission Protease (GE Healthcare). Activity of the final product was determined using a FLINT NH3 release assay.
(§1) 8 μl of PAD4 enzyme diluted to an assay concentration of 75 nm in assay buffer (a).: (100 mM HEPES, 50 mM NaCl, 2 mM DTT and 0.6 mg/mIBSA pH 8), or in assay buffer (b).: (100 mM HEPES, 50 mM NaCl, 2 mM DTT, 7.5% glycerol and 1.5 mM CHAPS pH 8), and added to wells containing 0.1 μl of various concentrations of compound or DMSO vehicle (0.8% final) in a Greiner high volume 384 well black plate. Following 30 mins pre-incubation at room temperature, the reaction was initiated by the addition of 4 μl of substrate buffer containing 3 mM N-a-benzoyl-L-arginine ethyl ester (BAEE), 100 mM HEPES, 50 mM NaCl, 600 uM CaCl2 (2H2O) and 2 mM DTT, pH 8.0. The reaction was stopped after 100 mins with the addition of 38 μl stop/detection buffer containing 50 mM EDTA, 2.6 mM phthalaldehyde and 2.6 mM DTT. Assay incubated at room temperature for 90 mins before measuring fluorescent signal (λex 413/λem 476) on an Envision plate reader (Perkin Elmer Life Sciences, Waltham, Mass., USA)
as §1, with “of 30 nM” for “of 75 nm”, “buffer” for “buffer (a).:”, “mg/mIBSA” for “mg/mIBSA pH 8), or in assay buffer (b).: (100 mM HEPES, 50 mM NaCl, 2 mM DTT, 7.5% glycerol and 1.5 mM CHAPS”, “after 60” for “after 100”, “(λex 405/λem 460)” for “(λex 413/λem 476)”

[2] = target: T2, Recombinant human PAD2 (residues 1-665) (Homo sapiens, UniProt Q9Y2J8); assay: PAD2 enzyme assay (NH3 release, BAEE substrate, fluorescence); format: biochemical; details: PAD2 enzyme assay above or similar assays; read-out: mean pIC50 (converted)
T2 construct: Recombinant human PAD2 (residues 1-665); 6His-FLAG (N); made in house; host or cells: baculovirus-infected Sf9 insect cells
T2 sequence (Q9Y2J8 whole entry, the tested form may be a part): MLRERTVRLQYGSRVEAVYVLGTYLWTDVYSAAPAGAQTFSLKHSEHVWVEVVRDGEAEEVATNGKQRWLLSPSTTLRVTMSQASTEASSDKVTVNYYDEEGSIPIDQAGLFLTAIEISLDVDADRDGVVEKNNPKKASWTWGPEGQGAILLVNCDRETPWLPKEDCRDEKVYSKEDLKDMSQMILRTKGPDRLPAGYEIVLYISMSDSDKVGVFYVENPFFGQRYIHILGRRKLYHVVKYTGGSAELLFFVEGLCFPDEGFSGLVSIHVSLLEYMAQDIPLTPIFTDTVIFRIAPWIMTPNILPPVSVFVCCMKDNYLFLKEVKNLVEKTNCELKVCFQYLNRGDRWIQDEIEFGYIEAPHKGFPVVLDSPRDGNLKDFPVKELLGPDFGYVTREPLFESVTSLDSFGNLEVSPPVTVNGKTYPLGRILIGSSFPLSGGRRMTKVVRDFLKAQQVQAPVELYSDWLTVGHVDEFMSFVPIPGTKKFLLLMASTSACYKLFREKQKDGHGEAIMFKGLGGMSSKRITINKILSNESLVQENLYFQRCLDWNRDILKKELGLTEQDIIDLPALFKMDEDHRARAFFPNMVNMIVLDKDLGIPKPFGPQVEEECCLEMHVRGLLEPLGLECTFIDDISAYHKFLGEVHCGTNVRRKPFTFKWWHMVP
Procedure: Recombinant human PAD2 (residues 1-665) was expressed in baculovirus-infected Sf9 insect cells as an N-terminal 6His-FLAG-tagged fusion protein. Activity of the final product was determined using a FLINT NH3 release assay.
8 μl of PAD2 enzyme diluted to an assay concentration of 30 nM in assay buffer (100 mM HEPES, 50 mM NaCl, 2 mM DTT, 7.5% glycerol and 1.5 mM CHAPS pH 8), and added to wells containing 0.1 μl of various concentrations of compound or DMSO vehicle (0.8% final) in a Greiner high volume 384 well black plate. Following 30 mins pre-incubation at room temperature, the reaction was initiated by the addition of 4 μl of substrate buffer containing 180 uM N-a-benzoyl-L-arginine ethyl ester (BAEE), 100 mM HEPES, 50 mM NaCl, 240 uM CaCl2 (2H2O) and 2 mM DTT, pH 8.0. The reaction was stopped after 90 mins with the addition of 38 μl stop/detection buffer containing 50 mM EDTA, 2.6 mM phthalaldehyde and 2.6 mM DTT. Assay incubated at room temperature for 90 mins before measuring fluorescent signal (λex 405/λem 460) on an Envision plate reader (Perkin Elmer Life Sciences, Waltham, Mass., USA)

| IC50 [1] | IC50 [2] | SMILES |
| --- | --- | --- |
| 0.0316 to 10 µM and 0.126 µM | 63.1 to 79.4 µM and > 79.4 µM | COc1cc(C(=O)N2CCC[C@@H](N)C2)cc2nc(-c3cc4cccnc4n3CC(F)(F)F)n(C)c12 [Example 11B, (R)-(3-Aminopiperidin-1-yl)(7-methoxy-1-methyl-2-(1-(2,2,2-trifluoroethyl)-1H-pyrrolo[2,3-b]pyridin-2-yl)-1H-benzo[d]imidazol-5-yl)methanone, hydrochloride] |
| 0.0316 to 10 µM | 63.1 to 79.4 µM | Cn1c(-c2cc3cccnc3n2CC2CC2)nc2cc(C(=O)N3CC[C@@H](O)[C@@H](N)C3)ccc21 [Example 13, ((3S,4R)-3-Amino-4-hydroxypiperidin-1-yl)(2-(1-(cyclopropylmethyl)-1H-pyrrolo[2,3-b]pyridin-2-yl)-1-methyl-1H-benzo[d]imidazol-5-yl)methanone, hydrochloride] |
| 0.0316 to 10 µM and 0.0794 µM | > 79.4 µM | COc1cc(C(=O)N2CC[C@@H](O)[C@@H](N)C2)cc2nc(-c3cc4cccnc4n3CC3CC3)n(C)c12 [Example 14, ((3S,4R)-3-Amino-4-hydroxypiperidin-1-yl)(2-(1-(cyclopropylmethyl)-1H-pyrrolo[2,3-b]pyridin-2-yl)-7-methoxy-1-methyl-1H-benzo[d]imidazol-5-yl)methanone, hydrochloride] |
| 0.0316 to 10 µM | 63.1 to 79.4 µM | COc1cc(C(=O)N2CCC[C@@H](N)C2)cc2nc(-c3cc4cccnc4n3CC(C)(C)C)n(C)c12 [Example 16, (R)-(3-Aminopiperidin-1-yl)(7-methoxy-1-methyl-2-(1-neopentyl-1H-pyrrolo[2,3-b]pyridin-2-yl)-1H-benzo[d]imidazol-5-yl)methanone] |
| 0.0316 to 10 µM | 63.1 to 79.4 µM | CCn1c(-c2nc3cc(C(=O)N4CCC[C@H](N)C4)cc(OC)c3n2C)cc2cccnc21 [Example 19, (S)-(3-Aminopiperidin-1-yl)(2-(1-ethyl-1H-pyrrolo[2,3-b]pyridin-2-yl)-7-methoxy-1-methyl-1H-benzo[d]imidazol-5-yl)methanone, hydrochloride] |
| 0.0316 to 10 µM | 63.1 to 79.4 µM | COc1cc(C(=O)N2CCC[C@@H](N)C2)cc2nc(-c3cc4cccnc4n3CC(C)C)n(C)c12 [Example 22, (R)-(3-Aminopiperidin-1-yl)(2-(1-isobutyl-1H-pyrrolo[2,3-b]pyridin-2-yl)-7-methoxy-1-methyl-1H-benzo[d]imidazol-5-yl)methanone, hydrochloride] |
